Read-outs that look alike come from different tables or passages of the source.

In series [1] the target is T1, catalytic domain (JH1, amino acids 826-1132) of human JAK2 (Homo sapiens, UniProt O60674).
T1 construct: catalytic domain (JH1, amino acids 826-1132) of human JAK2; FLAG (N); biotin (biotinylated); purchased Carna Biosciences 08-445-20N; host or cells: baculovirus expression system
Kind of series: JAK2 LanthaScreen JH1 binding assay. The note with it: read-out: JH1 Bind IC50. On the procedure:
Example A. JAK2 LanthaScreen […] Binding Assay
JAK2 JH1 binding assay utilizes catalytic domain (JH1, amino acids 826-1132) of human JAK2 expressed as N-terminal FLAG-tagged, biotinylated protein in a baculovirus expression system (Carna Biosciences, Product #08-445-20N). The assay was conducted in black 384-well polystyrene plates in a final reaction volume of 20 μL. JAK2 JH1 (1.5 nM) was incubated with compounds (100 nL serially diluted in DMSO) in the presence of 50 nM fluorescent JAK2-JH1 tracer and 0.5 nM Streptavidin-Tb cryptate (Cisbio Part #610SATLB) in assay buffer (50 mM Tris, pH=7.5, 10 mM MgCl2, 0.01% Brij-35, 0.1% BSA, 1 mM EGTA, 5% Glycerol and 5 mM DTT). Non-specific binding was accessed in the presence of 2 mM ATP. After incubation for 2 hours at 25° C., LanthaScreen signals were read on a PHERAstar FS plate reader (BMG LABTECH). Data was analyzed with IDBS XLfit and GraphPad Prism 5.0 software using a four parameter dose response curve to determine IC50 for each compound.
A general note: TR-FRET usually uses a lanthanide donor and a delayed reading to cut background.

The next series concerns the target T2, FLT3 (Homo sapiens, UniProt P36888).
T2 sequence (P36888 27-993): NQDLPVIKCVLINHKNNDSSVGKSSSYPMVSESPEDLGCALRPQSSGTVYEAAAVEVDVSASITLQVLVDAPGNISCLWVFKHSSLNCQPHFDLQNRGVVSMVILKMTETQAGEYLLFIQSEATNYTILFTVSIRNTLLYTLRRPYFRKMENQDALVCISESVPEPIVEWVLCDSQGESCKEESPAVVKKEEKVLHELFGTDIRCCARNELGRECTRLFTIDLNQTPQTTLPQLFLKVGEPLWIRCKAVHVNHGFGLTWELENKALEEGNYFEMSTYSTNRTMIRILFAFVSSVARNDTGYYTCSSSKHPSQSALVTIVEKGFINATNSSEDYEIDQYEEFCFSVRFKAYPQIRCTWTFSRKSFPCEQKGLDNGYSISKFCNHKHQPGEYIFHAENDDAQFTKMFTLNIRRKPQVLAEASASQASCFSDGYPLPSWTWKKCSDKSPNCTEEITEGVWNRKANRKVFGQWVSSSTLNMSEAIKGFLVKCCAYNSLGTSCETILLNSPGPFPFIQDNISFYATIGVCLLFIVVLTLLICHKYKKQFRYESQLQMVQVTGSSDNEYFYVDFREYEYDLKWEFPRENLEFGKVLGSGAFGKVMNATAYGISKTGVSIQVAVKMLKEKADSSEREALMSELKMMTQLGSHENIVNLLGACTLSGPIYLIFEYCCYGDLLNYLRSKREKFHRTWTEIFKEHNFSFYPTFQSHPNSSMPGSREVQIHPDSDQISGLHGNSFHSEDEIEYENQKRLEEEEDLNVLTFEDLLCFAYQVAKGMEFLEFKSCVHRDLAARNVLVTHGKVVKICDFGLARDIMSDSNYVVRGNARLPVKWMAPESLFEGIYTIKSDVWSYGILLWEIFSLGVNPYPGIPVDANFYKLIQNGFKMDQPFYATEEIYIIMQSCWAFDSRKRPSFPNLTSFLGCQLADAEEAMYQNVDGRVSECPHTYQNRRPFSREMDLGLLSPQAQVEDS
Kind of series: FLT3 enzymatic assay. In kind it is biochemical. As to conditions: 1 mM ATP. The gist of the method: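 Kinase reaction at room temperature in HEPES 50 mM pH 7.0 with 10 mM MgCl2, 1 mM DTT: 0.011 nM FLT3, 1 mM ATP, 500 nM biotinylated TK substrate, 0.5% DMSO. After 60 min, HTRF read as 665/620 nm ratio; IC50 from fit of percent control activity versus log concentration.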

The nature of series [2]: In vivo pharmacokinetics, rat. Also on record: species or system Sprague Dawley rats. As to conditions: male, Sprague Dawley, plasma, oral 3.0 mg/kg. On the procedure:
(§1) Example H. In Vivo Pharmacokinetics
(§2) Test compounds were administered to male Sprague Dawley rats or male and female Cynomolgus monkeys intravenously or via oral gavage. For intravenous (IV) dosing, test compounds were dosed at 1 mg/kg using a formulation of 10% dimethylacetamide (DMAC), 10% propylene glycol (PG) in acidified saline via IV bolus for rat or 10 min IV infusion for monkey. For oral (PO) dosing, test compounds were dosed at 3.0 mg/kg using 5% DMAC in 0.5% methylcellulose in citrate buffer (pH˜2.5). Blood samples were collected at predose and various time points up to 24 hours postdose. All blood samples were collected using EDTA as the anticoagulant and centrifuged to obtain plasma samples. The plasma concentrations of test compounds were determined by LC-MS/MS methods. The measured plasma concentrations were used to calculate PK parameters by standard noncompartmental methods using Phoenix® WinNonlin software program (version 8.0, Pharsight Corporation) or similar software. In rats and monkeys, cassette dosing of test compounds were conducted to obtain preliminary PK parameters. In vivo pharmacokinetic experiments with male beagle dogs may be performed under the conditions described above.

The nature of series [3]: In vivo pharmacokinetics, cynomolgus monkey. More on the design: species or system Cynomolgus monkeys. The note with it: both sexes, plasma, oral 3.0 mg/kg, read-out: CYNO PO AUC. On the procedure:
as §1, §2

T1 sequence (O60674 826-1132): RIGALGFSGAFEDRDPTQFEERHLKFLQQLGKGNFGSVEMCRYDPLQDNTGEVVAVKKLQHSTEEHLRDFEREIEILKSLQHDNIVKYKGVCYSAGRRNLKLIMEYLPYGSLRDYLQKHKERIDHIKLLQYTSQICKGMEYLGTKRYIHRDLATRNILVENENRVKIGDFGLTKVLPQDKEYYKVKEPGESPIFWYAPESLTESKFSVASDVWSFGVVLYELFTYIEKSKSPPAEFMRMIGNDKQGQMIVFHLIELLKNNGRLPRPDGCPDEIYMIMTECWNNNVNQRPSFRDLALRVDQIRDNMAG

As a reminder, the IC50 is the concentration at which inhibition is half-maximal. Broadly, the AUC is concentration integrated over time. For `COC(=O)N[C@@H]1CC[C@@H](n2c(=O)n(C)c3cnc4[nH]c(-c5cn(C)nc5OC)c(-c5ccc(F)cc5)c4c32)C1` [Example 1, Methyl ((1R,3R)-3-(8-(4-fluorophenyl)-7-(3-methoxy-1-methyl-1H-pyrazol-4-yl)-3-methyl-2-oxo-3,6-dihydroimidazo[4,5-d]pyrrolo[2,3-b]pyridin-1(2H)-yl)cyclopentyl)carbamate], the IC50 was > 1000 nM in series [1] (Table A), > 1000 nM in series [1] (Table C) and > 2500 nM against FLT3. Further, the AUC in series [2] and in series [3] was > 1.5 µM·h in each case.

With `COC(=O)N[C@@H]1CC[C@@H](n2c(=O)n(C)c3cnc4[nH]c(-c5cn(C)nc5OC)c(-c5ccccc5)c4c32)C1` [Example 2, Methyl ((1R,3R)-3-(7-(3-methoxy-1-methyl-1H-pyrazol-4-yl)-3-methyl-2-oxo-8-phenyl-3,6-dihydroimidazo[4,5-d]pyrrolo[2,3-b]pyridin-1(2H)-yl)cyclopentyl)carbamate], the results for the IC50 (in series [1] (Table A); in series [1] (Table C); against FLT3) were > 1000 nM, > 1000 nM and > 2500 nM, respectively. Moreover, the AUC in series [2] and in series [3] was > 1.5 µM·h each time.

With `COC(=O)N[C@@H]1CC[C@@H](n2c(=O)n(C)c3cnc4[nH]c(-c5cn(C)nc5OC)c(-c5cccc(F)c5)c4c32)C1` [Example 3, Methyl ((1R,3R)-3-(8-(3-fluorophenyl)-7-(3-methoxy-1-methyl-1H-pyrazol-4-yl)-3-methyl-2-oxo-3,6-dihydroimidazo[4,5-d]pyrrolo[2,3-b]pyridin-1(2H)-yl)cyclopentyl)carbamate], the IC50 in series [1] (Table A) was > 1000 nM; in series [1] (Table C) it was > 1000 nM; against FLT3, > 2500 nM. Besides, the AUC in series [2] and in series [3] was > 1.5 µM·h in each case.

For the compound `COC(=O)N[C@@H]1CC[C@@H](n2c(=O)n(C)c3cnc4[nH]c(-c5cn(C)nc5OC)c(-c5ccc(OC)c(F)c5)c4c32)C1` [Example 4, Methyl ((1R,3R)-3-(8-(3-fluoro-4-methoxyphenyl)-7-(3-methoxy-1-methyl-1H-pyrazol-4-yl)-3-methyl-2-oxo-3,6-dihydroimidazo[4,5-d]pyrrolo[2,3-b]pyridin-1(2H)-yl)cyclopentyl)carbamate], the IC50 in series [1] (Table A) is > 1000 nM; in series [1] (Table C), > 1000 nM; against FLT3, > 2500 nM. Besides, the AUC in series [2] and in series [3] was > 1.5 µM·h each time.

For the compound `[2H]C([2H])([2H])n1ncc2cc(-c3c(-c4cn(C)nc4OC)[nH]c4ncc5c(c34)n([C@@H]3CC[C@@H](NC(=O)OC)C3)c(=O)n5C)ccc21` [Example 5, Methyl ((1R,3R)-3-(7-(3-methoxy-1-methyl-1H-pyrazol-4-yl)-3-methyl-8-(1-(methyl-d3)-1H-indazol-5-yl)-2-oxo-3,6-dihydroimidazo[4,5-d]pyrrolo[2,3-b]pyridin-1(2H)-yl)cyclopentyl)carbamate], the IC50 is > 1000 nM in series [1] (Table A), > 1000 nM in series [1] (Table C) and 1250 to 2500 nM against FLT3. Also, the results for the AUC in series [2] and in series [3] were 0.5 to 1.5 µM·h and > 1.5 µM·h, respectively.

As to `[2H]C([2H])([2H])n1cc(-c2[nH]c3ncc4c(c3c2-c2ccc3c(cnn3C([2H])([2H])[2H])c2)n([C@@H]2CC[C@@H](NC(=O)OC)C2)c(=O)n4C([2H])([2H])[2H])c(F)n1` [Example 6, Methyl ((1R,3R)-3-(7-(3-fluoro-1-(methyl-d3)-1H-pyrazol-4-yl)-3-(methyl-d3)-8-(1-(methyl-d3)-1H-indazol-5-yl)-2-oxo-3,6-dihydroimidazo[4,5-d]pyrrolo[2,3-b]pyridin-1(2H)-yl)cyclopentyl)carbamate], the IC50 in series [1] (Table A) is > 1000 nM; in series [1] (Table C) it was > 1000 nM; at FLT3, 1250 to 2500 nM. The AUC in series [2] was 0.5 to 1.5 µM·h; in series [3], > 1.5 µM·h.

Take `[2H]C([2H])([2H])n1cc(-c2[nH]c3ncc4c(c3c2-c2ccc(F)cc2)n([C@@H]2CC[C@@H](NC(=O)OC)C2)c(=O)n4C([2H])([2H])[2H])c(F)n1` [Example 7, Methyl ((1R,3R)-3-(7-(3-fluoro-1-(methyl-d3)-1H-pyrazol-4-yl)-8-(4-fluorophenyl)-3-(methyl-d3)-2-oxo-3,6-dihydroimidazo[4,5-d]pyrrolo[2,3-b]pyridin-1(2H)-yl)cyclopentyl)carbamate]: the IC50 is > 1000 nM in series [1] (Table A), > 1000 nM in series [1] (Table C) and > 2500 nM at FLT3. In addition, the AUC in series [2] and in series [3] was > 1.5 µM·h each time.

As to `[2H]C([2H])([2H])n1cc(-c2[nH]c3ncc4c(c3c2-c2ccc3c(c2)COC3(C)C)n([C@@H]2CC[C@@H](NC(=O)OC)C2)c(=O)n4C([2H])([2H])[2H])c(F)n1` [Example 8, Methyl ((1R,3R)-3-(8-(1,1-dimethyl-1,3-dihydroisobenzofuran-5-yl)-7-(3-fluoro-1-(methyl-d3)-1H-pyrazol-4-yl)-3-(methyl-d3)-2-oxo-3,6-dihydroimidazo[4,5-d]pyrrolo[2,3-b]pyridin-1(2H)-yl)cyclopentyl)carbamate], the IC50 is > 1000 nM in series [1] (Table A), > 1000 nM in series [1] (Table C) and > 2500 nM at FLT3. Besides, the AUC was > 1.5 µM·h in series [2] and ≤ 0.5 µM·h in series [3].

Take `[2H]C([2H])([2H])Oc1ccc(-c2c(-c3cn(C([2H])([2H])[2H])nc3F)[nH]c3ncc4c(c23)n([C@@H]2CC[C@@H](NC(=O)OC)C2)c(=O)n4C([2H])([2H])[2H])cc1` [Example 9, Methyl ((1R,3R)-3-(7-(3-fluoro-1-(methyl-d3)-1H-pyrazol-4-yl)-8-(4-(methoxy-d3)phenyl)-3-(methyl-d3)-2-oxo-3,6-dihydroimidazo[4,5-d]pyrrolo[2,3-b]pyridin-1(2H)-yl)cyclopentyl)carbamate]: the IC50 is > 1000 nM in series [1] (Table A), > 1000 nM in series [1] (Table C) and 250 to 1250 nM on FLT3. For the same compound, the AUC in series [2] and in series [3] was > 1.5 µM·h in each case.

For `[2H]C([2H])([2H])n1ncc2cc(-c3c(-c4cn(C([2H])([2H])C([2H])([2H])[2H])nc4F)[nH]c4ncc5c(c34)n([C@@H]3CC[C@@H](NC(=O)OC)C3)c(=O)n5C([2H])([2H])[2H])ccc21` [Example 15, Methyl ((1R,3R)-3-(7-(1-(ethyl-d5)-3-fluoro-1H-pyrazol-4-yl)-3-(methyl-d3)-8-(1-(methyl-d3)-1H-indazol-5-yl)-2-oxo-3,6-dihydroimidazo[4,5-d]pyrrolo[2,3-b]pyridin-1(2H)-yl)cyclopentyl)carbamate], the IC50 in series [1] (Table A) is > 1000 nM; in series [1] (Table C), > 1000 nM; against FLT3, 250 to 1250 nM. The compound also registered an AUC in series [2] of 0.5 to 1.5 µM·h.

The values are drawn from patent publication US12084430B2, “Tricyclic urea compounds as JAK2 V617F inhibitors” (Incyte Corporation, priority 2022, dated 2024).
